In brackets after ≈: the same amount, converted by molar mass.
What was measured:
Cyberlindnera jadinii = test: Antifungal against Candida utilis after 24 hrs by two fold serial dilution method; type: functional; settings: Williopsis jadinii
Escherichia coli [1] = test: Antibacterial activity against Escherichia coli DH52 after 24 hrs by micro broth dilution assay; type: functional; settings: DH52, 24 h
Bacillus subtilis = test: Antibacterial activity against Bacillus subtilis after 24 hrs by micro broth dilution assay; type: functional
Candida albicans = test: Antifungal against Candida albicans ATCC 76615 after 24 hrs by two fold serial dilution method; type: functional; settings: ATCC 76615, 24 h
Pichia norvegensis = test: Antifungal against Candida mycoderma after 24 hrs by two fold serial dilution method; type: functional
Escherichia coli [2] = test: Antibacterial activity against Escherichia coli JM109 after 24 hrs by micro broth dilution assay; type: functional; settings: JM109, 24 h
Staphylococcus aureus [3] = test: Antibacterial activity against Staphylococcus aureus ATCC 25923 after 24 hrs by micro broth dilution assay; type: functional; settings: ATCC 25923, 24 h
Shigella dysenteriae = test: Antibacterial activity against Shigella dysenteriae after 24 hrs by micro broth dilution assay; type: functional
Pseudomonas aeruginosa [4] = test: Antibacterial activity against Pseudomonas aeruginosa after 24 hrs by micro broth dilution assay; type: functional
Pseudomonas aeruginosa [5] = test: Antibacterial activity against Pseudomonas aeruginosa incubated for 24 hrs followed by plating onto tryptic soy agar medium and measured after 24 hrs; type: functional
Staphylococcus aureus [6] = test: Ratio of MBC for Staphylococcus aureus ATCC 25923 to MIC for Staphylococcus aureus ATCC 25923; type: functional
Staphylococcus aureus [7] = test: Antibacterial activity against methicillin-resistant Staphylococcus aureus N315 after 24 hrs by micro broth dilution assay; type: functional; settings: N315, 24 h
Micrococcus luteus = test: Antibacterial activity against Micrococcus luteus ATCC4698 after 24 hrs by micro broth dilution assay; type: functional; settings: ATCC4698, 24 h
Aspergillus flavus = test: Antifungal against Aspergillus flavus after 24 hrs by two fold serial dilution method; type: functional
Bacillus = test: Antibacterial activity against Bacillus proteus ATCC 13315 after 24 hrs by micro broth dilution assay; type: functional; settings: ATCC 13315, 24 h
Salmonella typhi = test: Antibacterial activity against Bacillus typhi after 24 hrs by micro broth dilution assay; type: functional, Salmonella enterica subsp. enterica serovar Typhi; settings: Salmonella enterica
Staphylococcus aureus [8] = test: Antibacterial activity against methicillin-resistant Staphylococcus aureus N315 incubated for 24 hrs followed by plating onto tryptic soy agar medium and measured after 24 hrs; type: functional; settings: N315, 24 h
Staphylococcus aureus [9] = test: Antibacterial activity against Staphylococcus aureus ATCC 25923 incubated for 24 hrs followed by plating onto tryptic soy agar medium and measured after 24 hrs; type: functional; settings: ATCC 25923, 24 h
Saccharomyces cerevisiae = test: Antifungal against Saccharomyces cerevisiae after 24 hrs by two fold serial dilution method; type: functional
Staphylococcus aureus [10] = test: Ratio of MBC for methicillin-resistant Staphylococcus aureus N315 to MIC for methicillin-resistant Staphylococcus aureus N315; type: functional
Pseudomonas aeruginosa [11] = test: Ratio of MBC for Pseudomonas aeruginosa to MIC for Pseudomonas aeruginosa; type: functional

Compound: CCCCn1c(-c2cc(-c3ccc(F)cc3)nc(N)n2)nc2ccccc21
- MIC (Cyberlindnera jadinii): 8 µg/mL (≈ 22.1 µM)
- MIC (Escherichia coli [1]): 8 µg/mL (≈ 22.1 µM)
- MIC (Bacillus subtilis): 1 µg/mL (≈ 2.77 µM)
- MIC (Candida albicans): 512 µg/mL (≈ 1420 µM)
- MIC (Pichia norvegensis): 8 µg/mL (≈ 22.1 µM)
- MIC (Escherichia coli [2]): 256 µg/mL (≈ 708 µM)
- MIC (Staphylococcus aureus [3]): 128 µg/mL (≈ 354 µM)
- MIC (Shigella dysenteriae): 8 µg/mL (≈ 22.1 µM)
- MIC (Pseudomonas aeruginosa [4]): 512 µg/mL (≈ 1420 µM)
- MBC (Pseudomonas aeruginosa [5]): > 512 µg/mL
- Ratio (Staphylococcus aureus [6]): 2
- MIC (Staphylococcus aureus [7]): 256 µg/mL (≈ 708 µM)
- MIC (Micrococcus luteus): 512 µg/mL (≈ 1420 µM)
- MIC (Aspergillus flavus): 512 µg/mL (≈ 1420 µM)
- MIC (Bacillus): 64 µg/mL (≈ 177 µM)
- MIC (Salmonella typhi): 8 µg/mL (≈ 22.1 µM)
- MBC (Staphylococcus aureus [8]): > 512 µg/mL
- MBC (Staphylococcus aureus [9]): 256 µg/mL (≈ 708 µM)
- MIC (Saccharomyces cerevisiae): 32 µg/mL (≈ 88.5 µM)

Compound: CCCCCCn1c(-c2cc(-c3ccc(Cl)cc3)nc(N)n2)nc2ccccc21
- MIC (Cyberlindnera jadinii): 8 µg/mL (≈ 19.7 µM)
- MIC (Escherichia coli [1]): 2 µg/mL (≈ 4.93 µM)
- MIC (Bacillus subtilis): 128 µg/mL (≈ 315 µM)
- MIC (Candida albicans): 4 µg/mL (≈ 9.85 µM)
- MIC (Pichia norvegensis): 8 µg/mL (≈ 19.7 µM)
- MIC (Escherichia coli [2]): 16 µg/mL (≈ 39.4 µM)
- MIC (Staphylococcus aureus [3]): 256 µg/mL (≈ 631 µM)
- MIC (Shigella dysenteriae): 64 µg/mL (≈ 158 µM)
- MIC (Pseudomonas aeruginosa [4]): 512 µg/mL (≈ 1260 µM)
- MBC (Pseudomonas aeruginosa [5]): > 512 µg/mL
- Ratio (Staphylococcus aureus [6]): 2
- MIC (Staphylococcus aureus [7]): 32 µg/mL (≈ 78.8 µM)
- MIC (Micrococcus luteus): 2 µg/mL (≈ 4.93 µM)
- MIC (Aspergillus flavus): 32 µg/mL (≈ 78.8 µM)
- MIC (Bacillus): 256 µg/mL (≈ 631 µM)
- MIC (Salmonella typhi): 128 µg/mL (≈ 315 µM)
- MBC (Staphylococcus aureus [8]): 32 µg/mL (≈ 78.8 µM)
- MBC (Staphylococcus aureus [9]): 512 µg/mL (≈ 1260 µM)
- Ratio (Staphylococcus aureus [10]): 1
- MIC (Saccharomyces cerevisiae): 512 µg/mL (≈ 1260 µM)

Compound: CCCCCCCn1c(-c2cc(-c3ccc(Cl)cc3Cl)nc(N)n2)nc2ccccc21
- MIC (Cyberlindnera jadinii): 128 µg/mL (≈ 282 µM)
- MIC (Escherichia coli [1]): 32 µg/mL (≈ 70.4 µM)
- MIC (Bacillus subtilis): 256 µg/mL (≈ 563 µM)
- MIC (Candida albicans): 4 µg/mL (≈ 8.8 µM)
- MIC (Pichia norvegensis): 256 µg/mL (≈ 563 µM)
- MIC (Escherichia coli [2]): 512 µg/mL (≈ 1130 µM)
- MIC (Staphylococcus aureus [3]): 256 µg/mL (≈ 563 µM)
- MIC (Shigella dysenteriae): 128 µg/mL (≈ 282 µM)
- MIC (Pseudomonas aeruginosa [4]): 64 µg/mL (≈ 141 µM)
- MBC (Pseudomonas aeruginosa [5]): 128 µg/mL (≈ 282 µM)
- Ratio (Staphylococcus aureus [6]): 2
- Ratio (Pseudomonas aeruginosa [11]): 2
- MIC (Staphylococcus aureus [7]): 512 µg/mL (≈ 1130 µM)
- MIC (Micrococcus luteus): 16 µg/mL (≈ 35.2 µM)
- MIC (Aspergillus flavus): 256 µg/mL (≈ 563 µM)
- MIC (Bacillus): 512 µg/mL (≈ 1130 µM)
- MIC (Salmonella typhi): 32 µg/mL (≈ 70.4 µM)
- MBC (Staphylococcus aureus [8]): > 512 µg/mL
- MBC (Staphylococcus aureus [9]): 512 µg/mL (≈ 1130 µM)
- MIC (Saccharomyces cerevisiae): 128 µg/mL (≈ 282 µM)

Compound: CCCCCCn1c(-c2cc(-c3ccc(F)cc3)nc(N)n2)nc2ccccc21
- MIC (Cyberlindnera jadinii): 8 µg/mL (≈ 20.5 µM)
- MIC (Escherichia coli [1]): 512 µg/mL (≈ 1310 µM)
- MIC (Bacillus subtilis): 512 µg/mL (≈ 1310 µM)
- MIC (Candida albicans): 256 µg/mL (≈ 657 µM)
- MIC (Pichia norvegensis): 4 µg/mL (≈ 10.3 µM)
- MIC (Escherichia coli [2]): 512 µg/mL (≈ 1310 µM)
- MIC (Staphylococcus aureus [3]): 512 µg/mL (≈ 1310 µM)
- MIC (Shigella dysenteriae): 512 µg/mL (≈ 1310 µM)
- MIC (Pseudomonas aeruginosa [4]): 128 µg/mL (≈ 329 µM)
- MIC (Staphylococcus aureus [7]): 256 µg/mL (≈ 657 µM)
- MIC (Micrococcus luteus): 16 µg/mL (≈ 41.1 µM)
- MIC (Aspergillus flavus): 512 µg/mL (≈ 1310 µM)
- MIC (Bacillus): 128 µg/mL (≈ 329 µM)
- MIC (Salmonella typhi): 32 µg/mL (≈ 82.2 µM)
- MIC (Saccharomyces cerevisiae): 512 µg/mL (≈ 1310 µM)

Compound: CCCCn1c(-c2cc(-c3ccc(C)cc3)nc(N)n2)nc2ccccc21
- MIC (Cyberlindnera jadinii): 4 µg/mL (≈ 11.2 µM)
- MIC (Escherichia coli [1]): 32 µg/mL (≈ 89.5 µM)
- MIC (Bacillus subtilis): 16 µg/mL (≈ 44.8 µM)
- MIC (Candida albicans): 128 µg/mL (≈ 358 µM)
- MIC (Pichia norvegensis): 8 µg/mL (≈ 22.4 µM)
- MIC (Escherichia coli [2]): 16 µg/mL (≈ 44.8 µM)
- MIC (Staphylococcus aureus [3]): 8 µg/mL (≈ 22.4 µM)
- MIC (Shigella dysenteriae): 16 µg/mL (≈ 44.8 µM)
- MIC (Pseudomonas aeruginosa [4]): 8 µg/mL (≈ 22.4 µM)
- MBC (Pseudomonas aeruginosa [5]): 16 µg/mL (≈ 44.8 µM)
- Ratio (Staphylococcus aureus [6]): 4
- MIC (Staphylococcus aureus [7]): 16 µg/mL (≈ 44.8 µM)
- MIC (Micrococcus luteus): 16 µg/mL (≈ 44.8 µM)
- MIC (Aspergillus flavus): 64 µg/mL (≈ 179 µM)
- MIC (Bacillus): 16 µg/mL (≈ 44.8 µM)
- MIC (Salmonella typhi): 32 µg/mL (≈ 89.5 µM)
- MBC (Staphylococcus aureus [8]): 16 µg/mL (≈ 44.8 µM)
- MBC (Staphylococcus aureus [9]): 32 µg/mL (≈ 89.5 µM)
- Ratio (Staphylococcus aureus [10]): 1
- MIC (Saccharomyces cerevisiae): 32 µg/mL (≈ 89.5 µM)
